{"source": "paper PMC11212559", "about": "(Emerging Microbes & Infections, 2024)", "molecular_target": "E1CTD-E12 complex (Monkeypox virus Zaire-96-I-16, UniProt Q8V4Y7)", "assay": "biochemical", "data": [{"compound": "C[S+](CC[C@H](N)C(=O)O)C[C@H]1O[C@@H](n2cnc3c(N)ncnc32)[C@H](O)[C@@H]1O", "note": "(stereo partly shown) [SAM]", "values": [{"measurement": "Kd", "result": 3.87, "unit": "µM"}]}]}
